From ChEMBL document CHEMBL4616618, “Design and synthesis of a folate-receptor targeted diazepine-ring-opened pyrrolobenzodiazepine prodrug conjugate” (Bioorg Med Chem Lett, 2020)
The source made the active and inactive calls. No cut-off for these calls is given here.

Legend:
[1] = Antagonist activity at folate receptor in human KB cells after 2 hrs; assay type: cell-based
[2] = Antagonist activity at folate receptor in human KB cells after 2 hrs in presence of 100 uM folic acid; assay type: cell-based
KB [3] = assay: Antitumor activity against FR-positive human KB cells xenografted in nu/nu mouse assessed as reduction in tumor growth at 2 umol/kg administered as single dose for 1 week; assay type: functional, cell-based
KB [4] = assay: Antitumor activity against FR-positive human KB cells xenografted in nu/nu mouse at 300 nmol/kg administered as single dose for 1 week; assay type: functional, cell-based
[5] = Toxicity in mouse xenografted with FR-positive human KB cells assessed as body weight loss at 300 nmol/kg administered as single dose and measured up to 96 days post tumor implantation; assay type: cell-based; details: in vivo, 2304 h
[6] = Toxicity in mouse xenografted with FR-positive human KB cells assessed as tissue degeneration at 300 nmol/kg administered as single dose for 1 week; assay type: cell-based; details: in vivo, 168 h
[7] = Toxicity in mouse xenografted with FR-positive human KB cells assessed as body weight loss at 2 umol/kg administered as single dose for 1 week; assay type: cell-based; details: in vivo, 168 h

SMILES	IC50 [1] [nM]	IC50 [2] [nM]	Activity (KB [3])	Activity (KB [4])	Activity [5]	Activity [6]	Activity [7]
C=C1C[C@H]2C(=O)Nc3cc(OCCCCCOc4cc(N)c(C(=O)N5CC(=C)C[C@H]5C5OCCN5C(=O)OCCSSC[C@H](NC(=O)[C@H](CC(=O)O)NC(=O)[C@H](CC(=O)O)NC(=O)[C@H](CCCNC(=N)N)NC(=O)[C@H](CC(=O)O)NC(=O)CC[C@H](NC(=O)c5ccc(NCc6cnc7nc(N)[nH]c(=O)c7n6)cc5)C(=O)O)C(=O)O)cc4OC)c(OC)cc3C(=O)N2C1 (some centres undefined)	1.12	696					
C=C1C[C@@H](C2OCCN2C(=O)OCCSSC[C@@H](NC(=O)[C@H](CCC(=O)NC[C@H](O)[C@@H](O)[C@H](O)[C@H](O)CO)NC(=O)[C@@H](CCC(=O)O)NC(=O)[C@H](CCC(=O)NC[C@H](O)[C@@H](O)[C@H](O)[C@H](O)CO)NC(=O)[C@@H](CCC(=O)O)NC(=O)[C@H](CCC(=O)NC[C@H](O)[C@@H](O)[C@H](O)[C@H](O)CO)NC(=O)CC[C@H](NC(=O)c2ccc(NCc3cnc4nc(N)[nH]c(=O)c4n3)cc2)C(=O)O)C(=O)O)N(C(=O)c2cc(OC)c(OCCCCCOc3cc(N)c(C(=O)N4CC(=C)C[C@H]4C4OCCN4C(=O)OCCSSc4ccccn4)cc3OC)cc2N)C1 (some centres undefined)	1.31	184	Active				
C=C1C[C@H]2C=Nc3cc(OCCCCCOc4cc(N)c(C(=O)N5CC(=C)C[C@H]5C5OCCN5C(=O)OCC(C)(C)SSCCC(=O)NCCNC(=O)CCOCCOCCOCCOCCNC(=O)CCN5C(=O)CC(SC[C@H](NC(=O)[C@H](CC(=O)O)NC(=O)[C@H](CC(=O)O)NC(=O)[C@H](CCCNC(=N)N)NC(=O)[C@H](CC(=O)O)NC(=O)CC[C@H](NC(=O)c6ccc(NCc7cnc8nc(N)[nH]c(=O)c8n7)cc6)C(=O)O)C(=O)O)C5=O)cc4OC)c(OC)cc3C(=O)N2C1 (some centres undefined)	0.0522	3.78		Active	Toxic	Toxic	
C=C1C[C@@H](C2OCCN2C(=O)OCCSSC[C@@H](NC(=O)[C@H](CCC(=O)NC[C@H](O)[C@@H](O)[C@H](O)[C@H](O)CO)NC(=O)[C@@H](CCC(=O)O)NC(=O)[C@H](CCC(=O)NC[C@H](O)[C@@H](O)[C@H](O)[C@H](O)CO)NC(=O)[C@@H](CCC(=O)O)NC(=O)[C@H](CCC(=O)NC[C@H](O)[C@@H](O)[C@H](O)[C@H](O)CO)NC(=O)CC[C@H](NC(=O)c2ccc(NCc3cnc4nc(N)[nH]c(=O)c4n3)cc2)C(=O)O)C(=O)O)N(C(=O)c2cc(OC)c(OCCCCCOc3ccc(-c4nc5ccc(-c6nc7cc(N8CCN(C)CC8)ccc7[nH]6)cc5[nH]4)cc3)cc2N)C1 (some centres undefined)	0.658	84.3	Active				Toxic
